17 molecules from patent US10730880B2, “4,6-substituted-pyrazolo[1,5-a]pyrazines as Janus kinase inhibitors” (Array BioPharma Inc., priority 2014, dated 2020) can be followed below.

Like-named read-outs stand apart in the source and are kept apart here.

Common to all, as to format: biochemical
One assay concerns the target JAK2 (Homo sapiens (Human), UniProt O60674). Description: JAK2 Inhibition Assay (Omnia kinase fluorescence peptide substrate assay). From the text:
(§1) The assays described in Examples A, B, C and D for the determination of Tyk2, JAK1, JAK2 and JAK3 kinase activity, respectively, utilized the Omnia® Kinase fluorescence peptide substrate-based technology (Invitrogen). The specific components of the assay mixture are described in Examples A, B, C and D. In these assays, Mg^2+ is chelated upon phosphorylation of the Omnia peptide by the kinase to form a bridge between the chelation-enhanced fluorophore Sox and the phosphate, resulting in an increase in fluorescence emission at 485 nm when excited at […]. The reactions were therefore read at excitation 360 nm and emission was measured at 485 nm every 50 seconds for 45 minutes using a PerkinElmer EnVision Multilabel Plate Reader.
(§2) The final buffer conditions for Tyk2, JAK1, JAK2, and JAK3 assays were as follows: 25 mM HEPES, pH 7.4, 10 mM MgCl2, 0.01% Triton X-100 and 1 mM DTT.
(§3) Two-μL aliquots of these were transferred to a fresh plate for a ten-fold intermediate dilution with assay buffer. Five-μL aliquots of the diluted compounds were then transferred to 20-μL of assay mixtures described in Examples A, B, C and D for a final concentration of DMSO of 2%. […] For each plate, percent of control (POC) values were calculated for each well according to the following equation:
(§4) where Xmax=Average Uninhibited Controls • Xmin=Average Background IC50's were estimated from the POC's using a standard 4-parameter logistic model:
(§5) where A=Minimum Y (Bottom Asymptote) • B=Maximum Y (Top Asymptote) • C=EC50 • D=Slope Factor • X=Compound Concentration (nM) • Y=POC
(§6) The IC50 is defined as the concentration of inhibitor at which the POC equals 50 for the fitted curve.
Compounds of Formula I were screened for their ability to inhibit JAK2 using the general enzyme inhibition assay method, in which the assay mixture contained 1 mM ATP, 10 μM Omnia® Y7 peptide (Catalog # IVGN KNZ3071C, Invitrogen Corporation, Carlsbad, Calif.) and 4 nM JAK2 in a total volume of 25 μL. JAK2 was purchased from Invitrogen Corporation, Carlsbad, Calif. (catalog # IVGN PV4288).

The target of a further assay is Human Tyk2 kinase domain (Homo sapiens (Human), UniProt P29597). Description: Tyk2 Inhibition Assay (Omnia kinase fluorescence peptide substrate assay).
Source text: as §1, §2, §3, §4, §5, §6
Compounds of Formula I were screened for their ability to inhibit Tyk2 using the general enzyme inhibition assay method, in which the assay mixture contained 1 mM ATP, 8 μM Omnia® Y12 peptide (Catalog # IVGN KPZ3121C; Invitrogen Corporation, Carlsbad, Calif.) and 1 nM Tyk2 in a total volume of 25 μL. Human Tyk2 kinase domain, comprising amino acids 886 to 1187 with 10 additional histidine residues (histidine tag) on the carboxy terminus, was expressed and purified from bacculovirus in-house at Array BioPharma Inc. (Boulder, Colo.). The histidine tag was cleaved after purification using standard conditions.

The target in the next assay is JAK3 (Homo sapiens (Human), UniProt P52333). Description: JAK3 Inhibition Assay (Omnia kinase fluorescence peptide substrate assay). The note with it: read-out: JAK3 Enzyme IC50 1 mM ATP, averaged IC50 ranges.
Source text: as §1, §2
Two-μL aliquots of these were transferred to a fresh plate for a ten-fold intermediate dilution with assay buffer. Five-μL aliquots of the diluted compounds were then transferred to 20-μL of assay mixtures described in Examples A, B, C and D for a final concentration of DMSO of 2%. […] For each plate, percent of control (POC) values were calculated for each well according to the following equation: […]

In the next assay the target is JAK1 (Homo sapiens (Human), UniProt P23458). Description: JAK1 Inhibition Assay (Omnia kinase fluorescence peptide substrate assay).
Source text: as §1, §2, §3, §4, §5, §6
Compounds of Formula I were screened for their ability to inhibit JAK1 using the general enzyme inhibition assay method, in which the assay mixture contained 1 mM ATP, 8 μM Omnia® Y12 peptide (Catalog # IVGN KPZ3121C; Invitrogen Corporation, Carlsbad, Calif.) and 12.5 nM JAK1 in a total volume of 25 μL. JAK1 was purchased from Invitrogen Corporation, Carlsbad, Calif. (catalog # IVGN PV4775).

Setting [1] is: read-out: JAK2 Enzyme IC50 1 mM ATP, 1 mM ATP, averaged IC50 ranges.
The mark [2] stands for this setting: read-out: TYK2 Enzyme IC50 1 mM ATP, 1 mM ATP, averaged IC50 ranges.
The mark [3] stands for this setting: JAK1 Enzyme IC50 1 mM ATP, averaged IC50 ranges.

Sequence of JAK1 (P23458 whole entry): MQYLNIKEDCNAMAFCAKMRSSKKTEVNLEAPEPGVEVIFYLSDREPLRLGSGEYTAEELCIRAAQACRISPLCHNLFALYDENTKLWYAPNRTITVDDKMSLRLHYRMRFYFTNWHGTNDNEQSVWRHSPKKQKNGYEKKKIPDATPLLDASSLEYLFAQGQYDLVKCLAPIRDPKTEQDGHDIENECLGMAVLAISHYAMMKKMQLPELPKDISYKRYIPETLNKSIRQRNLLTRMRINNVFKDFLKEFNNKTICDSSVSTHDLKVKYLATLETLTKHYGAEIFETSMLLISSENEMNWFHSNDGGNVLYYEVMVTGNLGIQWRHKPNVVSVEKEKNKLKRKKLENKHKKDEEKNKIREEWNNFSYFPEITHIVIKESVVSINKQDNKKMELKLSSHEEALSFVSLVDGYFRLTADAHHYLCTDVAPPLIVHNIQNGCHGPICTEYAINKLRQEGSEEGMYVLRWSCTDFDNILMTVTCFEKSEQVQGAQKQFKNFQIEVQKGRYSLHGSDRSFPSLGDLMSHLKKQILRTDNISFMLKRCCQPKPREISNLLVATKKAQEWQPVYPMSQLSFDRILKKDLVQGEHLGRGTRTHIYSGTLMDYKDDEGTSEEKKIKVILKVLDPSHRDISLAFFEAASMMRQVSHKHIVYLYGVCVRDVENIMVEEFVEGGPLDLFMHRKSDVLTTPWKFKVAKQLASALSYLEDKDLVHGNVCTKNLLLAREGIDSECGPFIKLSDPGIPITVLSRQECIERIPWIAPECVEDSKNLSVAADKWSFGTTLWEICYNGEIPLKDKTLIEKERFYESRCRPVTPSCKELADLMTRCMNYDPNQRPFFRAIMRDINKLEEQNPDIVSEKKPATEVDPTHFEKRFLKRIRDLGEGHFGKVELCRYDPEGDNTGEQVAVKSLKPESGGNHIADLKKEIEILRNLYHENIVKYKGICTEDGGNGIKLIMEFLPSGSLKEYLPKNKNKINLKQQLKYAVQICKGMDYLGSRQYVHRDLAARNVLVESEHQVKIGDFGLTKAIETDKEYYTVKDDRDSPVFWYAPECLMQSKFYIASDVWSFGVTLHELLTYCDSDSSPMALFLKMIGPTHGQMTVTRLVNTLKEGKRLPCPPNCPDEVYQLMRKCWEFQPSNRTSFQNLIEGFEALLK
Sequence of JAK2 (O60674 whole entry): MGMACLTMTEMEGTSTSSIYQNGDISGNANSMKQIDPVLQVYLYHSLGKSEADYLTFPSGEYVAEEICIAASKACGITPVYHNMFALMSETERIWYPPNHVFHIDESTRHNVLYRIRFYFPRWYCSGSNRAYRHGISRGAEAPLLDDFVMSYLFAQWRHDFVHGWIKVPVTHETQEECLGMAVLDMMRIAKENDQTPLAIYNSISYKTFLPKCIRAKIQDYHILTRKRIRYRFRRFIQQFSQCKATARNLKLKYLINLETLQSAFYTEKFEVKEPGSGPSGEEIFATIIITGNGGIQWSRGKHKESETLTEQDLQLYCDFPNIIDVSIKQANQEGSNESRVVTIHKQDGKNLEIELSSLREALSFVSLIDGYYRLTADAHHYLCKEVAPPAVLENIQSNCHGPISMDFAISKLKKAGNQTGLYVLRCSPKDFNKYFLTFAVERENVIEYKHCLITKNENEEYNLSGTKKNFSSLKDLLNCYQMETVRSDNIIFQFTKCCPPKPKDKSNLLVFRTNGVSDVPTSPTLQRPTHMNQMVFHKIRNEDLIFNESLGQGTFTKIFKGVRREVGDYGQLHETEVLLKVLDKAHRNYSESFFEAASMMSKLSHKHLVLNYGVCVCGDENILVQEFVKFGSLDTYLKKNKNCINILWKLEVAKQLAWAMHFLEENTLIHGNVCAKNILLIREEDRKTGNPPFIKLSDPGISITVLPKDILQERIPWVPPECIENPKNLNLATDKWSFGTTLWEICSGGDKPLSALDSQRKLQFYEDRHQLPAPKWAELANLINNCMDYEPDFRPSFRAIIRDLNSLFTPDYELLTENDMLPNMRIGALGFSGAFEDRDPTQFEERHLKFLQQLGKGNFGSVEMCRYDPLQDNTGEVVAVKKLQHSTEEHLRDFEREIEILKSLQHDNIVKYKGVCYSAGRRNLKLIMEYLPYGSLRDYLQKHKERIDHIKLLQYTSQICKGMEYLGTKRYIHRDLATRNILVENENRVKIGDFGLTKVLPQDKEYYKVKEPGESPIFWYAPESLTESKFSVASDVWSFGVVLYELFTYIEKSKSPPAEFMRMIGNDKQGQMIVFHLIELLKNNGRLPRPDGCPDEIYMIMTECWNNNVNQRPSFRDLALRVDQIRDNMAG
Sequence of Human Tyk2 kinase domain (P29597 886-1187): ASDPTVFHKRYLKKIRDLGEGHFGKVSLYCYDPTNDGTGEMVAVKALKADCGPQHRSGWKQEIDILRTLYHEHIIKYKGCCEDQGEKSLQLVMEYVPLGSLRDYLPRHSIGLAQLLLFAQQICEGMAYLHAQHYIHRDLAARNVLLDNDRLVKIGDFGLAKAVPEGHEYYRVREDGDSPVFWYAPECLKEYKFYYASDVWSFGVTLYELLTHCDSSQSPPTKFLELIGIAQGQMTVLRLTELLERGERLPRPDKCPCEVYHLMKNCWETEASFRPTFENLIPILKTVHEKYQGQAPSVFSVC
Sequence of JAK3 (P52333 whole entry): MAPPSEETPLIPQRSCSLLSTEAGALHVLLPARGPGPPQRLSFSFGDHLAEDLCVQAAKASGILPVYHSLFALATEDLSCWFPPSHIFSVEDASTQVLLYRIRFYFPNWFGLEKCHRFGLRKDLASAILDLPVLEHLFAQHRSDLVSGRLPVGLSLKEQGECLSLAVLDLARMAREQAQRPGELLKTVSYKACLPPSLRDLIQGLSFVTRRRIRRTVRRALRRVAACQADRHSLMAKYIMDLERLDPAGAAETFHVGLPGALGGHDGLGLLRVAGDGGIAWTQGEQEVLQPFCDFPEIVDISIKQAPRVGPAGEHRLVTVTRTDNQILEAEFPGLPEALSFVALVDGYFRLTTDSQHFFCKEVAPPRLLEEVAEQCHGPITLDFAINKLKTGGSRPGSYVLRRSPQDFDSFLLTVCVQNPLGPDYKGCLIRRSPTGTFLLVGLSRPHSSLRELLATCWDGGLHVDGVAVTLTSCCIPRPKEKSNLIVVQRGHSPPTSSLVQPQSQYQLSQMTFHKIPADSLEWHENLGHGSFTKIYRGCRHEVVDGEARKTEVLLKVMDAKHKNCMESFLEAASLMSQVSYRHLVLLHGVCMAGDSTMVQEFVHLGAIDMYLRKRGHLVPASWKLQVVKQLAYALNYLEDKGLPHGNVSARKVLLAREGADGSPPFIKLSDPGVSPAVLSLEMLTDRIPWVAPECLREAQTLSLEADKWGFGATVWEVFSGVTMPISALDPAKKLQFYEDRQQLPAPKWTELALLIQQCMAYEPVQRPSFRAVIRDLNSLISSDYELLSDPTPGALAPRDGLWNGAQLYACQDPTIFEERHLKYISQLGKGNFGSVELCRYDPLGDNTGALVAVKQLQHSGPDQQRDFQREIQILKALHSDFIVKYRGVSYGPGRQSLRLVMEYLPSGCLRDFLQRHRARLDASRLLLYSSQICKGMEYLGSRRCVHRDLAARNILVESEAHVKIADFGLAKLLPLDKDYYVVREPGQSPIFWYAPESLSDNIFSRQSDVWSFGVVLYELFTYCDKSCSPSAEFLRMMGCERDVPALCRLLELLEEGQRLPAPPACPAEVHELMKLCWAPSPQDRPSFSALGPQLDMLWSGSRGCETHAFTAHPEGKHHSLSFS

Usually IC50 stands for the point on the concentration scale where inhibition reaches its midpoint. Regarding `CC[C@H](C1CC1)n1cc(-c2nc(-c3cnn(C[C@@H](O)CO)c3)cn3nccc23)cn1` (single isomer, unassigned) [Example 213], at JAK2 (setting [1]), the IC50 was 10 to 100 nM.

Consider `CCC(CC)n1cc(-c2nc(-c3cnn(C4CS(=O)(=O)C4)c3)cn3nccc23)cn1` [Example 13, 3-(4-(4-(1-(pentan-3-yl)-1H-pyrazol-4-yl)pyrazolo[1,5-a]pyrazin-6-yl)-1H-pyrazol-1-yl)thietane 1,1-dioxide], for which, at JAK2 (setting [1]), the IC50 is less than 10 nM.

In the case of `CCC(CC)n1cc(-c2nc(-c3cnn(C4CCN(C(C)=O)CC4)c3)cn3nccc23)cn1` [Example 31, 1-(4-(4-(4-(1-(pentan-3-yl)-1H-pyrazol-4-yl)pyrazolo[1,5-a]pyrazin-6-yl)-1H-pyrazol-1-yl)piperidin-1-yl)ethanone], on JAK2 (setting [1]), the IC50 was less than 10 nM.

For the molecule `CCC(CC)n1cc(-c2nc(-c3cnn(C4CCN(S(C)(=O)=O)CC4)c3)cn3nccc23)cn1` [Example 32, 6-(1-(1-(methylsulfonyl)piperidin-4-yl)-1H-pyrazol-4-yl)-4-(1-(pentan-3-yL)-1H-pyrazol-4-yl)pyrazolo[1,5-a]pyrazine], the IC50 at Human Tyk2 kinase domain (setting [2]) and at JAK2 (setting [1]) was less than 10 nM each time.

Take `CCC(CC)n1cc(-c2nc(-c3cnn(C4CCN(C(=O)COC)CC4)c3)cn3nccc23)cn1` [Example 33, 2-methoxy-1-(4-(4-(4-(1-(pentan-3-yl)-1H-pyrazol-4-yl)pyrazolo[1,5-a]pyrazin-6-yl)-1H-pyrazol-1-yl)piperidin-1-yl)ethanone]: the IC50 at Human Tyk2 kinase domain (setting [2]) and on JAK2 (setting [1]) was less than 10 nM in each case.

For `CCC(CC)n1cc(-c2nc(-c3cnn(C4CCN(C(=O)NC)CC4)c3)cn3nccc23)cn1` [Example 34, N-methyl-4-(4-(4-(1-(pentan-3-yl)-1H-pyrazol-4-yl)pyrazolo[1,5-a]pyrazin-6-yl)-1H-pyrazol-1-yl)piperidine-1-carboxamide], on JAK2 (setting [1]), the IC50 was less than 10 nM.

As for `CCC(CC)n1cc(-c2nc(-c3cnn(C4CCN(C(=O)CN)CC4)c3)cn3nccc23)cn1` [Example 36, 2-amino-1-(4-(4-(4-(1-(pentan-3-yl)-1H-pyrazol-4-yl)pyrazolo[1,5-a]pyrazin-6-yl)-1H-pyrazol-1-yl)piperidin-1-yl)ethanone], the IC50 on Human Tyk2 kinase domain (setting [2]) and on JAK2 (setting [1]) was less than 10 nM in each case.

On to `CC[C@@H](C)n1cc(-c2nc(-c3cnn(C(CO)CO)c3)cn3nccc23)cn1` [Example 85, (R)-2-(4-(4-(1-(sec-butyl)-1H-pyrazol-4-yl)pyrazolo[1,5-a]pyrazin-6-yl)-1H-pyrazol-1-yl)propane-1,3-diol], for which the IC50 on JAK2 (setting [1]) was less than 10 nM.

`CCC[C@H](C)n1cc(-c2nc(-c3cnn(C[C@H](O)CO)c3)cn3nccc23)cn1` [Example 86, (S)-3-(4-(4-(1-((S)-pentan-2-yl)-1H-pyrazol-4-yl)pyrazolo[1,5-a]pyrazin-6-yl)-1H-pyrazol-1-yl)propane-1,2-diol]: on Human Tyk2 kinase domain (setting [2]), the IC50 is less than 10 nM.

Regarding `CC1(C)CCC[C@@H]1n1cc(-c2nc(-c3cnn(C[C@@H](O)CO)c3)cn3nccc23)cn1` [Example 95, (R)-3-(4-(4-(1-((S)-2,2-dimethylcyclopentyl)-1H-pyrazol-4-yl)pyrazolo[1,5-a]pyrazin-6-yl)-1H-pyrazol-1-yl)propane-1,2-diol], the IC50 at JAK2 (setting [1]) lay within 1000 to 10000 nM.

As for `CCC(CC)n1cc(-c2nc(-c3cnn([C@H]4CC[C@H](O)CC4)c3)cn3nccc23)cn1` [Example 118, trans-4-(4-(4-(1-(pentan-3-yl)-1H-pyrazol-4-yl)pyrazolo[1,5-a]pyrazin-6-yl)-1H-pyrazol-1-yl)cyclohexanol], the IC50 at JAK3 lay in the range of 1000 to 10000 nM.

For the molecule `CCC(CC)n1cc(-c2nc(-c3cnn([C@H]4CC[C@@H](O)CC4)c3)cn3nccc23)cn1` [Example 121, cis-4-(4-(4-(1-(pentan-3-yl)-1H-pyrazol-4-yl)pyrazolo[1,5-a]pyrazin-6-yl)-1H-pyrazol-1-yl)cyclohexanol], at JAK3, the IC50 lay in the range of 1000 to 10000 nM.

As to `CCC(CC)n1cc(-c2nc(-c3cnn([C@@H]4C[C@@H](O)[C@@H](O)C4)c3)cn3nccc23)cn1` [Example 132, (1R,2S,4s)-4-(4-(4-(1-(pentan-3-yl)-1H-pyrazol-4-yl)pyrazolo[1,5-a]pyrazin-6-yl)-1H-pyrazol-1-yl)cyclopentane-1,2-diol], the IC50 at JAK1 (read-out: JAK1 Enzyme IC50 1 mM ATP, averaged IC50 ranges) fell in the range of 100 to 1000 nM; at JAK2 (setting [1]) it was 10 to 100 nM.

Turning to `CCC(CC)n1cc(-c2nc(-c3cnn(C4CC(C(N)=O)C4)c3)cn3nccc23)cn1` (centres unmarked) [Example 168, (1s,3s)-3-(4-(4-(1-(pentan-3-yl)-1H-pyrazol-4-yl)pyrazolo[1,5-a]pyrazin-6-yl)-1H-pyrazol-1-yl)cyclobutanecarboxamide], at JAK1 (setting [3]), the IC50 is 1000 to 10000 nM.

For `CCC(CC)n1cc(-c2nc(-c3cnn(C4CN(C(=O)C(C)(C)O)C4)c3)cn3nccc23)cn1` [Example 176, 2-hydroxy-2-methyl-1-(3-(4-(4-(1-(pentan-3-yl)-1H-pyrazol-4-yl)pyrazolo[1,5-a]pyrazin-6-yl)-1H-pyrazol-1-yl)azetidin-1-yl)propan-1-one], the IC50 at Human Tyk2 kinase domain (setting [2]) was less than 10 nM.

As to `CCC(CC)n1cc(-c2nc(-c3cnn(C4CN(C(=O)C5(O)CC5)C4)c3)cn3nccc23)cn1` [Example 177, (1-hydroxycyclopropyl)(3-(4-(4-(1-(pentan-3-yl)-1H-pyrazol-4-yl)pyrazolo[1,5-a]pyrazin-6-yl)-1H-pyrazol-1-yl)azetidin-1-yl)methanone], the IC50 at Human Tyk2 kinase domain (setting [2]) is less than 10 nM.

In the case of `CCC(CC)n1cc(-c2nc(-c3cnn([C@@H]4CCC[C@@H]4O)c3)cn3nccc23)cn1` [Example 189, (1S,2R)-2-(4-(4-(1-(pentan-3-yl)-1H-pyrazol-4-yl)pyrazolo[1,5-a]pyrazin-6-yl)-1H-pyrazol-1-yl)cyclopentanol], the IC50 against Human Tyk2 kinase domain is 10 to 100 nM; against JAK1 (setting [3]) it was 1000 to 10000 nM; at JAK2 it was 10 to 100 nM.
